In patent US12522594B2, “2-heteroaryl-3-oxo-2,3-dihydropyridazine-4-carboxamides for the treatment of cancer” (Deutsches Krebsforschungszentrum, priority 2017, dated 2026) one finds IC50 data, which are given here for 21 compounds.

As a reminder, the IC50 is the point on the concentration scale where inhibition reaches its midpoint.

Bounds are passed on as bounds.

For experiment [1], the target named is T1, AHR (Homo sapiens, UniProt P35869).
T1 sequence (P35869 11-848): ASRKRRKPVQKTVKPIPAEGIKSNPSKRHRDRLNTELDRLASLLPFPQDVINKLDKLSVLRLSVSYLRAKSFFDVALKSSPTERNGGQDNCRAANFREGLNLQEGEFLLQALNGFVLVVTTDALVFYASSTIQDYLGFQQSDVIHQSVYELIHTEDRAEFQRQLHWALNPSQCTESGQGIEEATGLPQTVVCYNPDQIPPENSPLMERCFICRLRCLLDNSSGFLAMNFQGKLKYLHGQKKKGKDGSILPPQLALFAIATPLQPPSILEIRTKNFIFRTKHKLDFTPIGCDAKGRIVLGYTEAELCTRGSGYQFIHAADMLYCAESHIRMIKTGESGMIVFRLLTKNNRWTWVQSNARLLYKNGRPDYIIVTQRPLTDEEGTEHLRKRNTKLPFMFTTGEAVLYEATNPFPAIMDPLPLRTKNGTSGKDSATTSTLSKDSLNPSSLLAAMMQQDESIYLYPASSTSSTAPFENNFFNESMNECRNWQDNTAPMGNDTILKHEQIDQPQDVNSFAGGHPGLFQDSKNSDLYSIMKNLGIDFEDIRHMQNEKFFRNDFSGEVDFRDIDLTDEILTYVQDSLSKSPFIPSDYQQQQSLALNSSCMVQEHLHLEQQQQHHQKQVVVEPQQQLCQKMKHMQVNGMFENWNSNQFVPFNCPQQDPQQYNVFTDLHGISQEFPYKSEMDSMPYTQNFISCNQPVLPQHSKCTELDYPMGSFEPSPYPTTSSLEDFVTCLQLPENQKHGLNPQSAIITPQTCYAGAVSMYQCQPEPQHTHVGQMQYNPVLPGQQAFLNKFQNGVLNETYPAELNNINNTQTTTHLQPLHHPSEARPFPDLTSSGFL
In words: In vitro assay 2: agonism in human cell line (transactivation assay, U87 cells, DRE firefly luciferase reporter). It counts as cell-based. The following applies: no kynurenic acid, 20 hours, read-out: Assay 2: AHR-luc Hum Agonism IC50. Further details: host or cells: U87 glioblastoma cells, stably transfected with DRE firefly luciferase and renilla reporter constructs. An outline of the steps: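 Agonist readout: DRE firefly luciferase, with constitutive renilla reporter, in stably transfected U87 cells expressing AHR endogenously. Normalization used positive control (300 uM kynurenic acid) and negative control.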
In general terms: Reporter assays use an easily measured gene product as a stand-in for the process of interest.

Experiment [2] deals with T1, AHR. In words: In vitro assay 1: antagonism in human cell line (transactivation assay, U87 cells prestimulated with kynurenic acid, DRE firefly luciferase reporter). The following applies: 150 uM kynurenic acid, 20 hours, read-out: Assay 1: AHR-luc Hum Antagonism IC50. In kind it is cell-based. Further details: host or cells: U87 glioblastoma cells, stably transfected with DRE firefly luciferase and renilla reporter constructs. An outline of the steps: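 Antagonism measured after kynurenic acid prestimulation in U87 cells that express AHR endogenously and stably harbor a firefly luciferase gene under DRE control plus a constitutive renilla construct. Positive and negative controls served for normalization.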

For the compound `O=C(N[C@H](CO)C(F)(F)F)c1cc(-c2ccc(C(F)(F)F)cc2)nn(-c2cnn(C(F)F)c2)c1=O` [Example 214, 2-[1-(Difluoromethyl)-1H-pyrazol-4-yl]-3-oxo-N-[(2R)-1,1,1-trifluoro-3-hydroxypropan-2-yl]-6-[4-(trifluoromethyl)phenyl]-2,3-dihydropyridazine-4-carboxamide], the 50% inhibitory concentration (IC50) in experiment [1] is > 20000 nM; in experiment [2] it was 2.07 nM.

Consider `O=C(NC[C@H](O)C(F)(F)F)c1cc(-c2ccc(Cl)cc2)nn(-c2ccnnc2)c1=O` [Example 321, 3-(4-Chlorophenyl)-6-oxo-N-[(2S)-3,3,3-trifluoro-2-hydroxypropyl]-6H-1,4′-bipyridazine-5-carboxamide], for which the IC50 was > 20000 nM in experiment [1] and 50.6 nM in experiment [2].

For the compound `C[C@@H](NC(=O)c1cc(-c2ccc(OC(F)(F)F)cc2)nn(-c2cnsc2)c1=O)C(C)(C)O` [Example 327, N-[(2R)-3-Hydroxy-3-methylbutan-2-yl]-3-oxo-2-(1,2-thiazol-4-yl)-6-[4-(trifluoromethoxy)phenyl]-2,3-dihydropyridazine-4-carboxamide], the IC50 in experiment [1] was > 20000 nM; in experiment [2], 2.58 nM.

On to `Cc1cc(-n2nc(-c3ccc(Cl)cc3)cc(C(=O)NCC(C)(C)O)c2=O)cs1` [Example 246, 6-(4-Chlorophenyl)-N-(2-hydroxy-2-methylpropyl)-2-(5-methyl-3-thienyl)-3-oxo-2,3-dihydropyridazine-4-carboxamide], for which the IC50 in experiment [1] was > 20000 nM; in experiment [2] it was 13.2 nM.

Consider `N#C[C@@H](CO)NC(=O)c1cc(-c2ccc(C(F)(F)F)nc2)nn(-c2cncc(F)c2)c1=O` [Example 341, N-[(1S)-1-Cyano-2-hydroxyethyl]-2-(5-fluoropyridin-3-yl)-3-oxo-6-[6-(trifluoromethyl)pyridin-3-yl]-2,3-dihydropyridazine-4-carboxamide], for which the IC50 was > 20000 nM in experiment [1] and 102 nM in experiment [2].

As to `O=C(NC(CO)CO)c1cc(-c2ccc(Cl)cc2)nn(-c2cccnc2)c1=O` [Example 70, 6-(4-Chlorophenyl)-N-(1,3-dihydroxypropan-2-yl)-3-oxo-2-(pyridin-3-yl)-2,3-dihydropyridazine-4-carboxamide], the IC50 in experiment [1] was > 20000 nM; in experiment [2] it was 159 nM.

Regarding `C[C@@H](CO)NC(=O)c1cc(-c2ccc(Cl)cc2)nn(-c2cncnc2)c1=O` [Example 120, 6-(4-Chlorophenyl)-N-[(2S)-1-hydroxypropan-2-yl]-3-oxo-2-(pyrimidin-5-yl)-2,3-dihydropyridazine-4-carboxamide], the IC50 in experiment [1] is > 20000 nM; in experiment [2], 67.9 nM.

`O=C(NC(CO)CO)c1cc(-c2ccc(Cl)cc2)nn(-c2cncc(F)c2)c1=O` [Example 84, 6-(4-Chlorophenyl)-N-(1,3-dihydroxypropan-2-yl)-2-(5-fluoropyridin-3-yl)-3-oxo-2,3-dihydropyridazine-4-carboxamide]: the figures for the IC50 in experiment [1] and in experiment [2] were > 20000 nM and 163 nM, respectively.

As to `C[C@@H](CO)NC(=O)c1cc(-c2ccc(Cl)cc2)nn(-c2csc(Cl)c2)c1=O` [Example 243, 6-(4-Chlorophenyl)-2-(5-chloro-3-thienyl)-N-[(2S)-1-hydroxypropan-2-yl]-3-oxo-2,3-dihydropyridazine-4-carboxamide], the IC50 in experiment [1] was > 20000 nM; in experiment [2] it was 11.8 nM.

On to `CC(NC(=O)c1cc(-c2ccc(Cl)cc2)nn(-c2cccnc2)c1=O)C(O)C(F)(F)F` (single isomer, unassigned) [Example 298, 6-(4-Chlorophenyl)-3-oxo-2-(pyridin-3-yl)-N-(4,4,4-trifluoro-3-hydroxybutan-2-yl)-2,3-dihydropyridazine-4-carboxamide], for which the half-maximal inhibitory concentration (IC50) in experiment [1] is > 20000 nM; in experiment [2], 3.69 nM.

For the compound `Cn1cc(-n2nc(-c3ccc(Cl)cc3)cc(C(=O)N[C@@H]3CCC[C@]3(C)O)c2=O)cn1` (single isomer, unassigned) [Example 335, 6-(4-Chlorophenyl)-N-[(cis)-2-hydroxy-2-methylcyclopentyl]-2-(1-methyl-1H-pyrazol-4-yl)-3-oxo-2,3-dihydropyridazine-4-carboxamide], the IC50 in experiment [1] was > 20000 nM; in experiment [2] it was 11.3 nM.

On to `O=C(N[C@@H](CO)C(F)(F)F)c1cc(-c2ccc(Cl)cc2)nn(-c2cccnc2)c1=O` [Example 95, (−)-6-(4-Chlorophenyl)-3-oxo-2-(pyridin-3-yl)-N-[(2S)-1,1,1-trifluoro-3-hydroxypropan-2-yl]-2,3-dihydropyridazine-4-carboxamide], for which the IC50 is > 20000 nM in experiment [1] and 62.3 nM in experiment [2].

For the compound `O=C(N[C@H]1CCCC(F)(F)[C@@H]1O)c1cc(-c2ccc(OC(F)(F)F)cc2)nn(-c2cccnc2)c1=O` (single isomer, unassigned; enantiomer 1) [Example 141, N-[(trans)-3,3-Difluoro-2-hydroxycyclohexyl]-3-oxo-2-(pyridin-3-yl)-6-[4-(trifluoromethoxy)phenyl]-2,3-dihydropyridazine-4-carboxamide, Enantiomer 1], the 50% inhibitory concentration (IC50) is > 20000 nM in experiment [1] and 148 nM in experiment [2].

Take `O=C(N[C@@H]1COC[C@@H]1O)c1cc(-c2ccc(Cl)cc2)nn(-c2cncc(F)c2)c1=O` (relative stereo) [Example 301, 6-(4-Chlorophenyl)-2-(5-fluoropyridin-3-yl)-N-[(cis)-4-hydroxytetrahydro-furan-3-yl]-3-oxo-2,3-dihydropyridazine-4-carboxamide]: the results for the IC50 in experiment [1] and in experiment [2] were > 20000 nM and 31 nM, respectively.

Take `O=C(N[C@H]1CCC[C@H]1O)c1cc(-c2ccc(C(F)(F)F)nc2)nn(-c2cncc(F)c2)c1=O` [Example 338, 2-(5-Fluoropyridin-3-yl)-N-[(1S,2R)-2-hydroxycyclopentyl]-3-oxo-6-[6-(trifluoromethyl)pyridin-3-yl]-2,3-dihydropyridazine-4-carboxamide]: the IC50 in experiment [1] is > 20000 nM; in experiment [2] it was 24.1 nM.

In the case of `CC(C)(O)C(NC(=O)c1cc(-c2ccc(C(F)(F)F)cc2)nn(-c2cccnc2)c1=O)C(F)(F)F` (stereo not drawn) [Example 213, 3-Oxo-2-(pyridin-3-yl)-N-(1,1,1-trifluoro-3-hydroxy-3-methylbutan-2-yl)-6-[4-(trifluoromethyl)phenyl]-2,3-dihydropyridazine-4-carboxamide], the IC50 was > 20000 nM in experiment [1] and 1.92 nM in experiment [2].

On to `O=C(NCC(O)C(F)F)c1cc(-c2ccc(C(F)(F)F)cc2)nn(-c2cccnc2)c1=O` (single isomer, unassigned; (+)) [Example 247, (+)-N-(3,3-Difluoro-2-hydroxypropyl)-3-oxo-2-(pyridin-3-yl)-6-[4-(trifluoromethyl)phenyl]-2,3-dihydropyridazine-4-carboxamide], for which the IC50 in experiment [1] is > 20000 nM; in experiment [2], 13.9 nM.

Regarding `CC(C)(O)CNC(=O)c1cc(-c2ccc(Cl)cc2)nn(-c2cnn(C(F)F)c2)c1=O` [Example 278, 6-(4-Chlorophenyl)-2-[1-(difluoromethyl)-1H-pyrazol-4-yl]-N-(2-hydroxy-2-methylpropyl)-3-oxo-2,3-dihydropyridazine-4-carboxamide], the IC50 was > 20000 nM in experiment [1] and 140 nM in experiment [2].

Turning to `O=C(N[C@H](CO)C(F)(F)F)c1cc(-c2ccc(C(F)F)cc2)nn(-c2cccnc2)c1=O` [Example 127, 6-[4-(Difluoromethyl)phenyl]-3-oxo-2-(pyridin-3-yl)-N-[(2R)-1,1,1-trifluoro-3-hydroxypropan-2-yl]-2,3-dihydropyridazine-4-carboxamide], the IC50 in experiment [1] is > 20000 nM; in experiment [2] it was 4.17 nM.

On to `Cn1cc(-n2nc(-c3ccc(OC(F)F)cc3)cc(C(=O)NC(C(C)(C)O)C(F)(F)F)c2=O)cn1` (single isomer, unassigned) [Example 306, 6-[4-(Difluoromethoxy)phenyl]-2-(1-methyl-1H-pyrazol-4-yl)-3-oxo-N-(1,1,1-trifluoro-3-hydroxy-3-methylbutan-2-yl)-2,3-dihydropyridazine-4-carboxamide], for which the figures for the IC50 in experiment [1] and in experiment [2] were > 20000 nM and 1.33 nM, respectively.

For the compound `O=C(N[C@H](CO)C(F)(F)F)c1cc(-c2ccc(Cl)cc2)nn(-c2cncnc2)c1=O` [Example 271, 6-(4-Chlorophenyl)-3-oxo-2-(pyrimidin-5-yl)-N-[(2R)-1,1,1-trifluoro-3-hydroxypropan-2-yl]-2,3-dihydropyridazine-4-carboxamide], the values for the IC50 in experiment [1] and in experiment [2] were > 20000 nM and 72 nM, respectively.
